Data from PubChem BioAssay (NCI).
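Dose response: 5 concentrations. Exposure: 48 h. Format: 96-well plates. Endpoint: linear interpolation; highest concentration if not reached. TGI: concentration producing complete growth inhibition.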 Where a SMILES comes first, the peptide text is derived from it. [ ]: non-standard residue; d: D form. The star is where a group is joined. Boc = CC(C)(C)OC(=O)*; Lac = C[CH](O)C(=O)O; OBn = c1ccc(CO*)cc1

system: SK-MEL-2 melanoma; assay: NCI-60 cell line screen, 48 h

SMILES	TGI
CN(C)c1ccc(C2CC(c3ccc4ccccc4c3O)=NN2)cc1 (configuration not stated)	> 100 µM
CN1CCc2cc3c(c4c2C1C(O)c1ccccc1-4)OCO3 (configuration not stated)	21.7 µM
C1=CC2(C=CC13O[C@H](C1CCCCC1)[C@@H](C1CCCCC1)O3)O[C@H](C1CCCCC1)[C@@H](C1CCCCC1)O2	> 50 µM
CC(OC(=O)C(Cc1ccccc1)NC(=O)C(Cc1ccccc1)NC(=O)OC(C)(C)C)C(=O)OCc1ccccc1 (stereo not drawn) (Boc-Phe-Phe-[Lac]-OBn; configuration not given here)	> 100 µM

system: SK-MEL-28 melanoma; assay: NCI-60 cell line screen, 48 h

SMILES	TGI
CC1=NN(c2nc(N)nc(/C(C#N)=C/c3ccccc3O)n2)C(C)(C)C1	30.8 µM
Cc1c(-c2ccc(O)cc2)n(CCCCCCNCCOC(=O)NCCCc2ccc(N(CCCl)CCCl)cc2)c2ccc(O)cc12	13.8 µM
COc1ccc(NC(=S)Nc2cc(C)cc(C)n2)cc1	> 100 µM
CN(C)c1ccc(C2CC(c3ccc4ccccc4c3O)=NN2)cc1 (configuration not stated)	> 100 µM
CN1CCc2cc3c(c4c2C1C(O)c1ccccc1-4)OCO3 (configuration not stated)	85.7 µM
C1=CC2(C=CC13O[C@H](C1CCCCC1)[C@@H](C1CCCCC1)O3)O[C@H](C1CCCCC1)[C@@H](C1CCCCC1)O2	> 50 µM
CC(OC(=O)C(Cc1ccccc1)NC(=O)C(Cc1ccccc1)NC(=O)OC(C)(C)C)C(=O)OCc1ccccc1 (stereo not drawn) (Boc-Phe-Phe-[Lac]-OBn; configuration not given here)	> 100 µM

system: SK-MEL-5 melanoma; assay: NCI-60 cell line screen, 48 h

SMILES	TGI
CC1=NN(c2nc(N)nc(/C(C#N)=C/c3ccccc3O)n2)C(C)(C)C1	28.8 µM
Cc1c(-c2ccc(O)cc2)n(CCCCCCNCCOC(=O)NCCCc2ccc(N(CCCl)CCCl)cc2)c2ccc(O)cc12	4.06 µM
COc1ccc(NC(=S)Nc2cc(C)cc(C)n2)cc1	> 100 µM
CN(C)c1ccc(C2CC(c3ccc4ccccc4c3O)=NN2)cc1 (configuration not stated)	> 100 µM
CN1CCc2cc3c(c4c2C1C(O)c1ccccc1-4)OCO3 (configuration not stated)	26.4 µM
C1=CC2(C=CC13O[C@H](C1CCCCC1)[C@@H](C1CCCCC1)O3)O[C@H](C1CCCCC1)[C@@H](C1CCCCC1)O2	> 50 µM
CC(OC(=O)C(Cc1ccccc1)NC(=O)C(Cc1ccccc1)NC(=O)OC(C)(C)C)C(=O)OCc1ccccc1 (stereo not drawn) (Boc-Phe-Phe-[Lac]-OBn; configuration not given here)	> 100 µM

system: SK-OV-3 ovarian; assay: NCI-60 cell line screen, 48 h

SMILES	TGI
CC1=NN(c2nc(N)nc(/C(C#N)=C/c3ccccc3O)n2)C(C)(C)C1	53.2 µM
Cc1c(-c2ccc(O)cc2)n(CCCCCCNCCOC(=O)NCCCc2ccc(N(CCCl)CCCl)cc2)c2ccc(O)cc12	22.4 µM
COc1ccc(NC(=S)Nc2cc(C)cc(C)n2)cc1	> 100 µM
CN(C)c1ccc(C2CC(c3ccc4ccccc4c3O)=NN2)cc1 (configuration not stated)	> 100 µM
CN1CCc2cc3c(c4c2C1C(O)c1ccccc1-4)OCO3 (configuration not stated)	> 100 µM
C1=CC2(C=CC13O[C@H](C1CCCCC1)[C@@H](C1CCCCC1)O3)O[C@H](C1CCCCC1)[C@@H](C1CCCCC1)O2	> 50 µM
CC(OC(=O)C(Cc1ccccc1)NC(=O)C(Cc1ccccc1)NC(=O)OC(C)(C)C)C(=O)OCc1ccccc1 (stereo not drawn) (Boc-Phe-Phe-[Lac]-OBn; configuration not given here)	> 100 µM

system: SN12C renal; assay: NCI-60 cell line screen, 48 h

SMILES	TGI
CC1=NN(c2nc(N)nc(/C(C#N)=C/c3ccccc3O)n2)C(C)(C)C1	71.9 µM
Cc1c(-c2ccc(O)cc2)n(CCCCCCNCCOC(=O)NCCCc2ccc(N(CCCl)CCCl)cc2)c2ccc(O)cc12	6.22 µM
COc1ccc(NC(=S)Nc2cc(C)cc(C)n2)cc1	> 100 µM
CN(C)c1ccc(C2CC(c3ccc4ccccc4c3O)=NN2)cc1 (configuration not stated)	> 100 µM
CN1CCc2cc3c(c4c2C1C(O)c1ccccc1-4)OCO3 (configuration not stated)	11.1 µM
C1=CC2(C=CC13O[C@H](C1CCCCC1)[C@@H](C1CCCCC1)O3)O[C@H](C1CCCCC1)[C@@H](C1CCCCC1)O2	> 50 µM
CC(OC(=O)C(Cc1ccccc1)NC(=O)C(Cc1ccccc1)NC(=O)OC(C)(C)C)C(=O)OCc1ccccc1 (stereo not drawn) (Boc-Phe-Phe-[Lac]-OBn; configuration not given here)	> 100 µM

system: SNB-19 CNS; assay: NCI-60 cell line screen, 48 h

SMILES	TGI
CC1=NN(c2nc(N)nc(/C(C#N)=C/c3ccccc3O)n2)C(C)(C)C1	91.7 µM
Cc1c(-c2ccc(O)cc2)n(CCCCCCNCCOC(=O)NCCCc2ccc(N(CCCl)CCCl)cc2)c2ccc(O)cc12	28.1 µM
COc1ccc(NC(=S)Nc2cc(C)cc(C)n2)cc1	> 100 µM
CN1CCc2cc3c(c4c2C1C(O)c1ccccc1-4)OCO3 (configuration not stated)	> 100 µM
C1=CC2(C=CC13O[C@H](C1CCCCC1)[C@@H](C1CCCCC1)O3)O[C@H](C1CCCCC1)[C@@H](C1CCCCC1)O2	> 50 µM
CC(OC(=O)C(Cc1ccccc1)NC(=O)C(Cc1ccccc1)NC(=O)OC(C)(C)C)C(=O)OCc1ccccc1 (stereo not drawn) (Boc-Phe-Phe-[Lac]-OBn; configuration not given here)	> 100 µM

system: SNB-75 CNS; assay: NCI-60 cell line screen, 48 h

SMILES	TGI
Cc1c(-c2ccc(O)cc2)n(CCCCCCNCCOC(=O)NCCCc2ccc(N(CCCl)CCCl)cc2)c2ccc(O)cc12	14.1 µM
COc1ccc(NC(=S)Nc2cc(C)cc(C)n2)cc1	> 100 µM
CN(C)c1ccc(C2CC(c3ccc4ccccc4c3O)=NN2)cc1 (configuration not stated)	> 100 µM
CN1CCc2cc3c(c4c2C1C(O)c1ccccc1-4)OCO3 (configuration not stated)	28.5 µM
C1=CC2(C=CC13O[C@H](C1CCCCC1)[C@@H](C1CCCCC1)O3)O[C@H](C1CCCCC1)[C@@H](C1CCCCC1)O2	> 50 µM
CC(OC(=O)C(Cc1ccccc1)NC(=O)C(Cc1ccccc1)NC(=O)OC(C)(C)C)C(=O)OCc1ccccc1 (stereo not drawn) (Boc-Phe-Phe-[Lac]-OBn; configuration not given here)	> 100 µM

system: SR leukemia; assay: NCI-60 cell line screen, 48 h

SMILES	TGI
CC1=NN(c2nc(N)nc(/C(C#N)=C/c3ccccc3O)n2)C(C)(C)C1	> 100 µM
Cc1c(-c2ccc(O)cc2)n(CCCCCCNCCOC(=O)NCCCc2ccc(N(CCCl)CCCl)cc2)c2ccc(O)cc12	3.18 µM
COc1ccc(NC(=S)Nc2cc(C)cc(C)n2)cc1	> 100 µM
